Values after ≈ are worked out from the molar mass of the structure shown.

One test concerns Bacillus subtilis. Description: Growth inhibition of Bacillus subtilis. It is filed as functional.
Conditions: not given
A word on the MIC: it is the smallest concentration in the dilution series that meets the test's criterion for growth inhibition. Take `CO[C@H]1CC(=O)[C@@H]2C[C@@]3(SC)C(=O)N4[C@@H]5[C@@H](O)[C@H]6CC(=O)[C@@H]5C[C@@]4(S6)C(=O)N3[C@@H]2[C@H]1O`: the MIC was 25 µM (≈ 11.7 µg/mL).

In the case of `CO[C@H]1CC(=O)[C@@H]2C[C@@]3(SC)C(=O)N4[C@@H]5[C@@H](O)[C@H]6CC(=O)[C@@H]5C[C@@]4(SS6)C(=O)N3[C@@H]2[C@H]1O`, the MIC was determined as 13 µM (≈ 6.51 µg/mL).

A further test has as its system Human alphaherpesvirus 2. Description: Antiviral activity against Herpes simplex virus 2 infected in African green monkey Vero cells assessed as inhibition of virus-induced cytopathogenic effect after 24 hrs by crystal violet staining based assay. The class given is functional, organism-based. The conditions noted are these: Human alphaherpesvirus 2, Vero. Background: Damage to the host cells serves as the signal in cytopathic effect assays.
As usually defined, the IC50 is the midpoint of a concentration-inhibition curve. Take `CO[C@H]1CC(=O)[C@@H]2C[C@@]3(SC)C(=O)N4[C@@H]5[C@@H](O)[C@H]6CC(=O)[C@@H]5C[C@@]4(S6)C(=O)N3[C@@H]2[C@H]1O`: the IC50 worked out at 29 µM.

In the case of `O=C1C[C@H]2SS[C@@]34C[C@@H]1[C@@H]([C@H]2O)N3C(=O)c1cc2cc(O)ccc2n1C4=O`, the IC50 came to 70 µM.

For `CS[C@@]12C[C@H]3C(=O)C=C[C@H](O)[C@H]3N1C(=O)[C@@]13C[C@H]4C(=O)C[C@@H](SS1)[C@H](O)[C@H]4N3C2=O`, the IC50 stood at 64 µM.

`Nc1nc2c(ncn2COCCO)c(=O)[nH]1` [ACYCLOVIR]: the IC50 is 31 µM.

For the origin of these results see ChEMBL document CHEMBL4602665, “Amphiepicoccins A-J: Epipolythiodioxopiperazines from the Fish-Gill-Derived Fungus Epicoccum nigrum HDN17-88” (J Nat Prod, 2020).
